Tests used:
Assay type in all cases: biochemical
cathepsin K = target: T1, cathepsin K (Homo sapiens, UniProt P43235); assay: Inhibitory activity assay against cathepsin K (enzyme assay); conditions: Z-Phe-Arg-AMC 10 μM, enzyme 1 nM, pH 5.5, 30 minutes
T1 sequence (P43235 115-329): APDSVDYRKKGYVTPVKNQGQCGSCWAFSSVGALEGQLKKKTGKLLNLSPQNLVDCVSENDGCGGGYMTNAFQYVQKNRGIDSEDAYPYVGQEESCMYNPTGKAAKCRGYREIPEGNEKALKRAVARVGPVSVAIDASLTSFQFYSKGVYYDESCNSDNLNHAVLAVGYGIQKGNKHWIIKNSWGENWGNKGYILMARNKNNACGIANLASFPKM
Outline: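 Fluorogenic assay with 1 nM cathepsin K and 10 μM Z-Phe-Arg-AMC in pH 5.5 buffer (50 mM MES, 2 mM DTT, 2.5 mM EDTA, 0.01% Triton X-100, 10% DMSO). Ten compound concentrations, 10.0 to 0.000508 μM; 30 min reaction, ex 355/em 460 nm; IC50 by 4-parameter logistic fit.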

cathepsin B = cathepsin B (Homo sapiens, UniProt P07858); assay: Inhibitory activity assay against cathepsin B (enzyme assay); conditions: Z-Arg-Arg-AMC 40 μM, enzyme 1 nM, pH 6.0, 90 minutes
Outline: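 1 nM enzyme with 40 μM Z-Arg-Arg-AMC and compound (10.0 μM down to 0.000508 μM, 10 points) in pH 6.0 buffer of 50 mM MES, 5 mM DTT, 2.5 mM EDTA, 0.005% Polysorbate 20, 10% DMSO. Fluorescence (340/460 nm) read after 90 min; IC50 by 4-parameter logistic fit.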

cathepsin L = cathepsin L (Homo sapiens, UniProt P07711); assay: Inhibitory activity assay against cathepsin L (enzyme assay); conditions: Z-Phe-Arg-AMC 2 μM, enzyme 3 nM, pH 5.5, 30 minutes
Outline: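 Enzyme at 3 nM with 2 μM Z-Phe-Arg-AMC in 50 mM MES pH 5.5, 2.5 mM DTT, 2.5 mM EDTA, 0.005% Polysorbate 20, 10% DMSO; 30 min reaction, AMC fluorescence 340/460 nm. Ten-point series 10.0 μM to 0.000508 μM; IC50 by 4-parameter logistic fit.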

cathepsin S = cathepsin S (Homo sapiens, UniProt P25774); assay: Inhibitory activity assay against cathepsin S (enzyme assay); conditions: Z-Phe-Arg-AMC 70 μM, enzyme 3 nM, pH 6.5, 45 minutes
Outline: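 Cathepsin S (3 nM final) with Z-Phe-Arg-AMC substrate (70 μM final) in pH 6.5 buffer of 50 mM MES, 2.5 mM DTT, 1.0 mM EDTA, 0.001% BSA, 10% DMSO; compound 10.0 μM down to 0.000508 μM, 10 points. Fluorescence (ex 340/em 460 nm) after 45 min; IC50 by 4-parameter logistic fit.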

Chain of cathepsin S (P25774 115-331, species assumed): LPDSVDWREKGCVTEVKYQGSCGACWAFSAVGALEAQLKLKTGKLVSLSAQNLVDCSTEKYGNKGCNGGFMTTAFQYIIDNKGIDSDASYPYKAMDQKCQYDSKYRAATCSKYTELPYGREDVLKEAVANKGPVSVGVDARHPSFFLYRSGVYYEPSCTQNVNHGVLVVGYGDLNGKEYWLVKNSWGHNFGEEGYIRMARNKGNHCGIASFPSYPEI
Chain of cathepsin L (P07711 114-333, species assumed): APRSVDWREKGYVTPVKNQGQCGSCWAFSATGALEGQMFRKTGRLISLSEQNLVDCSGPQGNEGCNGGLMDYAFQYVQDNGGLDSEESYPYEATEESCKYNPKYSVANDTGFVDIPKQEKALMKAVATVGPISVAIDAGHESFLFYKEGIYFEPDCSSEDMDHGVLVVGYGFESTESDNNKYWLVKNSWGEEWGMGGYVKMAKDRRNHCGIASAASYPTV

Row | Structure (SMILES) | IC50 (cathepsin K) [nM] | IC50 (cathepsin B) [nM] | IC50 (cathepsin L) [nM] | IC50 (cathepsin S) [nM]
1 | COCCNC(=O)c1ccc(-c2ccc(NC(=O)NC3(c4ccnc(C#N)n4)CCCCC3)cc2)cc1 [Example 147, 4′-(3-(1-(2-cyanopyrimidin-4-yl)cyclohexyl)ureido)-N-(2-methoxyethyl)-[1,1′-biphenyl]-4-carboxamide] | 5.2 | > 10000 | > 10000 | 7930
2 | N#Cc1nccc(C2(NC(=O)Nc3ccc(-c4ccc(C(=O)N5CCCC5)c(Cl)c4)cc3)CCCCC2)n1 [Example 150, 1-(3′-chloro-4′-(pyrrolidin-1-carbonyl)-[1,1′-biphenyl]-4-yl)-3-(1-(2-cyanopyrimidin-4-yl)cyclohexyl)urea] | 6.6 | > 10000 | 8920 | > 10000
3 | CN(C)CCOc1ccc(-c2ccc(NC(=O)NC3(c4ccnc(C#N)n4)CCCCC3)cc2)cc1 [Example 153, 1-(1-(2-cyanopyrimidin-4-yl)cyclohexyl)-3-(4′-(2-(dimethylamino)ethoxy)-[1,1′-biphenyl]-4-yl)urea] | 0.2 | 4800 | 6720 | > 10000
4 | CC(C)N1CCN(c2ccc(-c3ccc(NC(=O)NC4(c5ccnc(C#N)n5)CCCCC4)cc3)cc2)CC1 [Example 154, 1-(1-(2-cyanopyrimidin-4-yl)cyclohexyl)-3-(4′-(4-isopropylpiperazin-1-yl)-[1,1′-biphenyl]-4-yl)urea] | 0.3 | 3210 | 4280 | > 10000
5 | CC(=O)N1CCN(c2ccc(-c3ccc(NC(=O)NC4(c5ccnc(C#N)n5)CCCCC4)cc3)cc2)CC1 [Example 155, 1-(4′(4-acetylpiperazin-1-yl)-[1,1′-biphenyl]-4-yl)-3-(1-(2-cyanopyrimidin-4-yl)cyclohexyl)urea] | 2 | 7340 | > 10000 | > 10000
6 | COCCOCc1ccc(-c2ccc(NC(=O)NC3(c4ccnc(C#N)n4)CCCCC3)cc2)cc1 [Example 157, 1-(1-(2-cyanopyrimidin-4-yl)cyclohexyl)-3-(4′-((2-methoxyethoxy)methyl)-[1,1′-biphenyl]-4-yl)urea] | 6.4 | > 10000 | > 10000 | 4620
7 | CN(C)CCNC(=O)c1ccc(-c2ccc(NC(=O)NC3(c4ccnc(C#N)n4)CCCCC3)cc2)cc1 [Example 159, 4′-(3-(1-(2-cyanopyrimidin-4-yl)cyclohexyl)ureido)-N-(2-(dimethylamino)ethyl)-[1,1′-biphenyl]-4-carboxamide] | 0.6 | 1890 | 4090 | > 10000
8 | CCN1CCN(c2ccc(-c3ccc(NC(=O)NC4(c5ccnc(C#N)n5)CCCCC4)cc3)cc2)CC1 [Example 160, 1-(1-(2-cyanopyrimidin-4-yl)cyclohexyl)-3-(4′-(4-ethylpiperazin-1-yl)-[1,1′-biphenyl]-4-yl)urea] | 0.1 | 1840 | 8810 | > 10000
9 | CS(=O)(=O)c1ccc(-c2ccc(NC(=O)NC3(c4ccnc(C#N)n4)CCCCC3)cc2C(F)(F)F)cc1 [Example 162, 1-(1-(2-cyanopyrimidin-4-yl)cyclohexyl)-3-(4′-(methylsulfonyl)-2-(trifluoromethyl)-[1,1′-biphenyl]-4-yl)urea] | 8.3 | > 10000 | 6520 | 3950
10 | N#Cc1nccc(C2(NC(=O)Nc3ccc(-c4ccc(C(=O)O)cc4)c(C(F)(F)F)c3)CCCCC2)n1 [Example 163, 4′-(3-(1-(2-cyanopyrimidin-4-yl)cyclohexyl)ureido)-2′-(trifluoromethyl)-[1,1′-biphenyl]-4-carboxylic acid] | 25.2 | > 10000 | > 10000 | 3370
11 | CC(=O)Nc1ccc(-c2ccc(NC(=O)NC3(c4ccnc(C#N)n4)CCCCC3)cc2F)cc1 [Example 164, N-(4′-(3-(1-(2-cyanopyrimidin-4-yl)cyclohexyl)ureido)-2′-fluoro-[1,1′-biphenyl]-4-yl)acetamide] | 6.2 | > 10000 | > 10000 | 4640
12 | CC(=O)NCc1ccc(-c2ccc(NC(=O)NC3(c4ccnc(C#N)n4)CCCCC3)cc2F)cc1 [Example 165, N-((4′-(3-(1-(2-cyanopyrimidin-4-yl)cyclohexyl)ureido)-2′-fluoro-[1,1′-biphenyl]-4-yl)methyl)acetamide] | 5.7 | > 10000 | > 10000 | > 10000
13 | CC(C)N1CCN(c2ccc(-c3ccc(NC(=O)NC4(c5ccnc(C#N)n5)CCCCC4)cc3F)cc2)CC1 [Example 166, 1-(1-(2-cyanopyrimidin-4-yl)cyclohexyl)-3-(2-fluoro-4′-(4-isopropylpiperazin-1-yl)-[1,1′-biphenyl]-4-yl)urea] | 0.4 | 2410 | 3440 | 5940
14 | CS(=O)(=O)c1ccc(-c2ccc(NC(=O)NC3(c4ccnc(C#N)n4)CCCCC3)cc2F)cc1 [Example 167, 1-(1-(2-cyanopyrimidin-4-yl)cyclohexyl)-3-(2-fluoro-4′-(methylsulfonyl)-[1,1′-biphenyl]-4-yl)urea] | 8 | > 10000 | > 10000 | 1110
15 | N#Cc1nccc(C2(NC(=O)Nc3ccc(-c4ccc(C5CCN(C6CC6)CC5)cc4)c(F)c3)CCCCC2)n1 [Example 168, 1-(1-(2-cyanopyrimidin-4-yl)cyclohexyl)-3-(4′-(1-cyclopropylpiperidin-4-yl)-2-fluoro-[1,1′-biphenyl]-4-yl)urea] | 0.3 | > 10000 | > 10000 | > 10000

Further lines, results first:

Row | IC50 (cathepsin K) [nM] | IC50 (cathepsin B) [nM] | IC50 (cathepsin L) [nM] | IC50 (cathepsin S) [nM] | Structure (SMILES)
16 | 16.8 | > 10000 | > 10000 | 8580 | N#Cc1nccc(C2(NC(=O)Nc3ccc(-c4ccc(S(=O)(=O)NC5CC5)cc4)cc3)CCCCC2)n1 [Example 148, 4′-(3-(1-(2-cyanopyrimidin-4-yl)cyclohexyl)ureido)-N-cyclopropyl-[1,1′-biphenyl]-4-sulfonamide]
17 | 6.4 | > 10000 | > 10000 | 7300 | N#Cc1nccc(C2(NC(=O)Nc3ccc(-c4ccc(C(=O)NC5CC5)cc4)cc3)CCCCC2)n1 [Example 149, 4′-(3-(1-(2-cyanopyrimidin-4-yl)cyclohexyl)ureido)-N-cyclopropyl-[1,1′-biphenyl]-4-carboxamide]
18 | 2 | > 10000 | > 10000 | > 10000 | CC(=O)NCc1ccc(-c2ccc(NC(=O)NC3(c4ccnc(C#N)n4)CCCCC3)cc2)cc1 [Example 151, N-((4′-(3-(1-(2-cyanopyrimidin-4-yl)cyclohexyl)ureido)-[1,1′-biphenyl]-4-yl)methyl)acetamide]
19 | 4.3 | > 10000 | > 10000 | > 10000 | COC(=O)Cc1ccc(-c2ccc(NC(=O)NC3(c4ccnc(C#N)n4)CCCCC3)cc2)cc1 [Example 156, methyl 2-(4′-(3-(1-(2-cyanopyrimidin-4-yl)cyclohexyl)ureido)-[1,1′-biphenyl]-4-yl)acetate]
20 | 6.6 | 5650 | > 10000 | 9430 | N#Cc1nccc(C2(NC(=O)Nc3ccc(-c4ccc(C(=O)NCC5CCCO5)cc4)cc3)CCCCC2)n1 (stereo not shown) [Example 158, 4′-(3-(1-(2-cyanopyrimidin-4-yl)cyclohexyl)ureido)-N-((tetrahydrofuran-2-yl)methyl)-[1,1′-biphenyl]-4-carboxamide]
21 | 61.1 | > 10000 | > 10000 | > 10000 | N#Cc1nccc(C2(NC(=O)Nc3ccc(-c4ccc(CC(=O)O)cc4)cc3)CCCCC2)n1 [Example 161, 2-(4′-(3-(1-(2-cyanopyrimidin-4-yl)cyclohexyl)ureido)-[1,1′-biphenyl]-4-yl)acetic acid]
22 | 74 | > 10000 | > 10000 | 3600 | N#Cc1nccc(C2(NC(=O)Nc3ccc(-c4ccc(S(=O)(=O)C(F)(F)F)cc4)cc3)CCCCC2)n1 [Example 169, 1-(1-(2-cyanopyrimidin-4-yl)cyclohexyl)-3-(4′-((trifluoromethyl)sulfonyl)-[1,1′-biphenyl]-4-yl)urea]
